Reference: PubChem BioAssay AID434932 (The Scripps Research Institute Molecular Screening Center, 2010)
Calls of active or inactive are those of the source.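 Rule for the calls: active = STAT1 activated, EC50 at most 10 µM; inactive = Over 10 µM EC50.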

Each compound was assayed on NIH 3T3 STAT1-luciferase reporter, IFN-gamma, luminescence (assay: enhancers of IFN-gamma-induced STAT1 luciferase – cell-based, luminescence, NIH 3T3, dose response, powders, late-stage follow-up (AID 434932)).

SMILES | EC50
Cc1cc(-c2ccc(F)cc2)n2ncc(-c3ccccc3)c2n1 | 0.0643 µM
COc1ccc(-c2cc(C)nc3c(-c4ccccc4)cnn23)cc1 | 4.04 µM
COc1ccc(-c2csc(N3C(=O)CNC3=S)n2)cc1 | 2.01 µM
CCN(CC)c1ccc2cc(C(=O)Nc3ccccn3)c(=O)oc2c1 | 10 µM (inactive)
COc1ccc2[nH]c3c(c2c1)CCn1c-3nc2ccccc2c1=O | < 0.00283 µM
CCOC(=O)/C(C#N)=C/c1cc(C)n(-c2ccccc2)c1C | 3.31 µM
O=C(Nc1nc2ccccc2s1)c1cc2ccccc2s1 | 0.835 µM
O=C(/C=C/Nc1ccccc1F)c1ccc(Br)cc1 | > 55.7 µM (inactive)
CC(=O)NC(=S)Nc1sc2c(c1C#N)CCCCC2 | > 55.7 µM (inactive)
Cc1nnc(SCC(=O)Nc2ccc(-c3nc4ccccc4s3)cc2)s1 | > 55.7 µM (inactive)
